According to patent US20130274237A1, “COMPOSITION INCLUDING CHLOROPHYLL A AS AN ACTIVE INGREDIENT FOR PREVENTING AND TREATING TH2-MEDIATED IMMUNOLOGICAL DISEASES” (GWANGJU INSTITUTE OF SCIENCE AND TECHNOLOGY, priority 2009, published 2013):
“And” between values parts separate entries of the source, which are not always exact repeats. Equal entries are not always repeated.

What was measured:
[1] = system: atopic dermatitis induced with DNCB in NC/Nga mice; assay: Sensory evaluation (clinical visual skin score) in DNCB-induced atopic dermatitis; format: in vivo; set-up: key: total of five item scores, 0 = lowest, 15 = highest; conditions: scale 0-15; for Sensory Evaluation Score, group mean: mean of 5 mice; for Sensory Evaluation Score mean: mean of A and B; for Sensory Evaluation Score mean / Sensory Evaluation Score A / Sensory Evaluation Score B: individual mouse; for Sensory Evaluation Score A: scorer A; for Sensory Evaluation Score B: scorer B
Description: Sensory evaluation was performed using the general clinical visual method. The result of visual evaluation was indicated in terms of the total score obtained by adding each of the evaluation scores for the five items shown in the below table. The scoring for the level of dermatitis was performed by two or more persons experienced in this experiment under mutual agreement. The score was set from “0” point, the lowest, to “15” point, the highest (Table 2).

[2] = system: spleen; assay: Measurement of spleen weight; format: in vivo, NC/Nga mice; conditions: for relative organ weight of spleen: group mean; for Absolute Comparison of Organs spleen wt. / Relative Comparison of Organs spleen: individual mouse; for Absolute Comparison of Organs spleen wt. mean S.D. / Relative Comparison of Organs spleen mean S.D.: mean of 5 mice
Description: The spleen of a sacrificed animal was ablated, removed of fat, and then measured of its weight. When the absolute organ weight of the spleen was compared with that of the positive control group (0.2576±0.043 g), the weight was lower in the order of test drug chlorophyll a 1 mg/kg group (0.1188±0.023 g), chlorophyll a 5 mg/kg group (0.1276±0.011 g), and 5 mg/kg drug control group (0.1376±0.025 g), and all of them were of significance at p<0.05, but were lower than that of the negative control group (0.1734±0.021 g) (FIG. 6).

[3] = system: IgE (Immunoglobulin E); assay: IgE concentration in blood serum (ELISA); format: in vivo, NC/Nga mice; conditions: for IgE Average Concentration / IgE Group Average: blood serum; for IgE Average Concentration: individual specimen; for IgE Group Average: mean of 5 mice
Description: The blood collected in a mouse was left at room temperature for 30 minutes and then centrifuged at 3000 rpm for 20 minutes. The blood serum obtained therefrom was analyzed via ELISA kit (Shibayagi, Japan).

[4] = system: dorsal skin of NC/Nga mice induced with atopic dermatitis using DNCB; assay: Dorsal skin inflammation of mice induced with atopic dermatitis (clinical images); format: in vivo; conditions: 15th week, versus positive control, in words
Text: 4-6) Dorsal Skin Inflammation of a Mouse Induced with Atopic Dermatitis • c. The body weight of a mouse was not increased due to DNCB solution used for inducing atopy, however, there was no decrease in body weight by the administration of chlorophyll a. In the positive control group coated with only distilled water after atopy induction using DNCB, there were observed a thick cornified layer and inflammation and damage on skin.

[5] = system: mast cells; assay: Histology: number of mast cells in skin (toluidine blue, x200); format: in vivo, NC/Nga mice; conditions: for Average No. of Mast Cells × 200: individual mouse; for Average No. of Mast Cells × 200, Group Mean: mean of 5 mice
Description: (§1) 4-7) Histology (H & E, Toluidine Blue Stain) • d. Skin tissues were fixed in 10% formalin for at least 24 hours, prepared into paraffin blocks, cut into pieces in the size of 4 μm, dyed with hematoxylin & eosin (Sigma, USA), and then dyed again with toluidine blue (Sigma, USA) for more accurate identification of inflammatory cells.

[6] = system: degranulation of mast cells; assay: Histology: mast cells per degranulation level; format: in vivo, NC/Nga mice; conditions: for No. of Mast Cells per value of degranulation level 1 / No. of Mast Cells per value of degranulation level 1, mean: intermediate level of degranulation; for No. of Mast Cells per value of degranulation level 1, mean: mean of 5 mice
Description: as §1

C=Cc1c(C)c2cc3nc(c4c5[n-]c(cc6nc(cc1[n-]2)C(C)=C6CC)c(C)c5C(=O)[C@@H]4C(=O)OC)[C@@H](CCC(=O)OC/C=C(\C)CCC[C@H](C)CCC[C@H](C)CCCC(C)C)[C@@H]3C.[Mg+2] [chlorophyll a]
Sensory Evaluation Score, group mean ([1]; 1 mg/kg oral daily): 2.7±0.758 and 2.7 | Sensory Evaluation Score mean ([1]; 1 mg/kg oral daily): 1.5 and 3 (2×) and 3.5 and 2.5 | Sensory Evaluation Score A ([1]; 1 mg/kg oral daily): 2 (2×) and 3 (3×) | Sensory Evaluation Score B ([1]; 1 mg/kg oral daily): 1 and 4 (2×) and 2 and 3 | Sensory Evaluation Score, group mean ([1]; 5 mg/kg oral daily): 2.7±1.789 and 2.7 | Sensory Evaluation Score mean ([1]; 5 mg/kg oral daily): 5.5 and 1.5 (3×) and 3.5 | Sensory Evaluation Score A ([1]; 5 mg/kg oral daily): 5 and 2 (3×) and 3 | Sensory Evaluation Score B ([1]; 5 mg/kg oral daily): 6 and 1 (3×) and 4 | relative organ weight of spleen ([2]; 1 mg/kg oral daily): 0.418 ± 0.211 g | Absolute Comparison of Organs spleen wt. ([2]; 1 mg/kg oral daily): 0.103 g and 0.114 g and 0.119 g and 0.1 g and 0.158 g | Relative Comparison of Organs spleen ([2]; 1 mg/kg oral daily): 0.355 g/body wt. (100 g) and 0.394 g/body wt. (100 g) and 0.433 g/body wt. (100 g) and 0.370 g/body wt. (100 g) and 0.537 g/body wt. (100 g) | Absolute Comparison of Organs spleen wt. mean S.D. ([2]; 1 mg/kg oral daily): 0.1188 ± 0.023 g | Relative Comparison of Organs spleen mean S.D. ([2]; 1 mg/kg oral daily): 0.418 ± 0.073 g/body wt. (100 g) | relative organ weight of spleen ([2]; 5 mg/kg oral daily): 0.446 ± 0.069 g | Absolute Comparison of Organs spleen wt. ([2]; 5 mg/kg oral daily): 0.144 g and 0.12 g and 0.133 g and 0.122 g and 0.119 g | Relative Comparison of Organs spleen ([2]; 5 mg/kg oral daily): 0.560 g/body wt. (100 g) and 0.383 g/body wt. (100 g) and 0.455 g/body wt. (100 g) and 0.414 g/body wt. (100 g) and 0.416 g/body wt. (100 g) | Absolute Comparison of Organs spleen wt. mean S.D. ([2]; 5 mg/kg oral daily): 0.1276 ± 0.011 g | Relative Comparison of Organs spleen mean S.D. ([2]; 5 mg/kg oral daily): 0.446 ± 0.069 g/body wt. (100 g) | absolute organ weight and relative organ weight of spleen compared with the negative control group ([2]; in words, dose not split): only a little difference | IgE Average Concentration ([3]; 1 mg/kg oral daily, 1 mg/kg): 104.198 ng/mL and 106.557 ng/mL and 166.675 ng/mL and 119.515 ng/mL and 149.499 ng/mL | IgE Group Average ([3]; 1 mg/kg oral daily, 1 mg/kg): 121.76 ± 15.58 ng/mL and 129.29 ± 27.60 ng/mL | IgE Average Concentration ([3]; 5 mg/kg oral daily, 5 mg/kg): 108.757 ng/mL and 115.652 ng/mL and 129.408 ng/mL and 88.578 ng/mL and 104.912 ng/mL | IgE Group Average ([3]; 5 mg/kg oral daily, 5 mg/kg): 109.46 ± 14.95 ng/mL | value of IgE ([3]; in words, dose not split): decreased | tissue damage of dorsal skin ([4]; 1 mg/kg oral daily): significant decreases | tissue damage of dorsal skin ([4]; 5 mg/kg oral daily): significant decreases | Average No. of Mast Cells × 200 ([5]; 1 mg/kg oral daily): 9.3 and 7.6 and 5.4 and 8.9 and 10.4 | Average No. of Mast Cells × 200, Group Mean ([5]; 1 mg/kg oral daily): 8.32±1.195 and 8.32 ± 1.915 and 8.32 | Average No. of Mast Cells × 200 ([5]; 5 mg/kg oral daily): 7.3 and 10 and 12.7 and 11.8 and 11.1 | Average No. of Mast Cells × 200, Group Mean ([5]; 5 mg/kg oral daily): 10.8±2.083 and 10.58 ± 2.083 and 10.58 | degranulation count of the mast cells ([6]; 1 mg/kg oral daily, in words): not significantly improved | No. of Mast Cells per value of degranulation level 1 ([6]; 1 mg/kg oral daily, individual mouse, 1 mg/kg): 2.87 and 1.44 and 1.91 and 1.75 and 2.57 | No. of Mast Cells per value of degranulation level 1, mean ([6]; 1 mg/kg oral daily, 1 mg/kg): 2.11±0.59 and 2.11 | No. of Mast Cells per value of degranulation level 1 ([6]; 5 mg/kg oral daily, individual mouse, 5 mg/kg): 0.75 and 2.31 and 2.76 and 2.57 and 4.31 | No. of Mast Cells per value of degranulation level 1, mean ([6]; 5 mg/kg oral daily, 5 mg/kg): 2.54±1.27 and 2.54 | No. of Mast Cells per value of degranulation level 0 ([6]; normal degranulation, 1 mg/kg oral daily, individual mouse, 1 mg/kg): 4.12 and 5.55 and 2.82 and 5.89 and 4.83
